This is an account of results in a melting point compilation (Tetko et al.; mined from patent text by program, amines drawn as free bases though some values may be those of a salt).

By melting point is commonly meant the temperature, or range, at which the solid turns liquid. As for `Cc1c(C)c2c(c(C)c1NC(=O)CCCO)C(c1ccc(C(C)C)cc1)CO2` (centres undefined), the melting point fell in the range of 156 to 157 °C. Compound `CC(C)(C)c1ccc(NC(=O)NCc2ccc(-n3c(-c4cccnc4N)nc4cccnc43)cc2)cc1` displayed a melting point of 210 to 212 °C. As to `O=C1C2CCCCN2C(=O)N1c1ccccc1` (centres undefined), the melting point was 186 to 187 °C.

`CC(CC(=O)O)C(=O)c1ccc2c(c1)OCC(=O)N2` (centres undefined) registered a melting point of 170 to 172 °C.

Take `N#Cc1ccc(CN(N)c2ccc(Br)cc2)cc1`: the melting point was 114 °C. With `O=C(O)c1cn(-c2ccc(F)cc2)c(C=Cc2ccncc2)cc1=O`, the melting point lay within 205 to 215 °C.

`Oc1ccc(C2CC2(Cl)Cl)cc1` (centres undefined) yielded a melting point of 54.5 to 56 °C. In turn, `Nc1nc2c(sc(=O)n2CC2CCCO2)c(=O)[nH]1` (centres undefined) gave a melting point of 257 to 261 °C. The compound `Cc1ccc2c(c1)N=C(N1CCN(C)CC1)c1cscc1O2` gave a melting point of 222 °C. In turn, `O=C(Cc1ccc(Oc2ccccc2)cc1)NNC(=O)c1ccc(O)cc1` gave a melting point of 181 to 183 °C. The result for `CS(=O)(=O)Nc1cc2occ(NC(N)=O)c(=O)c2cc1Oc1ccccc1` reads > 250 °C; that for `COCc1cn2c(C)c(C)nc2c(O)c1CCC(=O)c1ccccc1`, 167 to 168 °C; that for `CN(C)C1(c2ccccc2)CCC(c2[nH]c3ccccc3c2Cc2ccccc2)CC1` (centres undefined), 194 to 199 °C.

Take `COc1ccc(Cl)cc1-c1c(Sc2ccncc2)c(=O)[nH]c2ccc(C(F)(F)F)cc12`: the melting point is 257 to 260 °C.

For the compound `Cc1cc(N)cc(C)c1Oc1ccc(Cl)c2c1CCCC2`, the melting point lay within 126 to 135 °C.

Take `CCOC(=O)c1cn(C2CC2)c2nc(Cl)c(F)c(C)c2c1=O`: the melting point fell in the range of 170 to 171 °C. For `Cc1cc(C)cc(N2C(=O)NC(C)(C3CC3)C2=O)c1` (centres undefined), the melting point was found to be 121 °C. Compound `O=C(NCCSc1ccccn1)Nc1cc(N2CC(c3ccccc3)OC2=O)ccn1` (centres undefined) displayed a melting point of 209 to 211 °C. Regarding `O=C1Cc2cc(Cl)cc(Oc3ccccc3F)c2N1`, the melting point fell in the range of 204 to 207 °C. In the case of `CS(=O)c1ccc(C2=C(c3cccc(F)c3)C(=O)C(C)(C)O2)cc1F` (centres undefined) it was 148 to 149 °C. As for `Cc1csc2c1c(=O)oc(=O)n2Cc1ccccc1`, the melting point stood at 183 °C.

`CC(C)(C)c1cc(-c2csc(CO)n2)cc(C(C)(C)C)c1O` yielded a melting point of 126 to 127 °C. In turn, `N#Cc1ccc(CCN2CCC(NC(=O)C34CC5CC(CC(C5)C3)C4)C2)cc1` (centres undefined) gave a melting point of 104 to 105 °C. Consider `CCCc1nc2c(N)nc3cc(OCCOCCNS(C)(=O)=O)ccc3c2s1`, for which the melting point fell in the range of 134 to 137 °C. On to `CC(C)(C)OC(=O)N1CC(c2ccc(N=C(c3ccccc3)c3ccccc3)nc2)C1`, for which the melting point fell in the range of 104 to 105 °C. As for `CC(C(=O)c1c(O)c2cccnc2n(-c2ccccc2)c1=O)c1ccccc1` (centres undefined), the melting point was in the range of 140 to 151 °C. In the case of `CCSc1nn2c(-c3ccccc3)nnc2c2ccccc12` it was 190 to 191 °C; in that of `O=C(O)Cc1cccc2c(-c3ccc(Br)cc3)nccc12`, 230 to 232 °C; in that of `O=c1c2cc3ncn(CCc4cccc(F)c4)c(=O)c3cc2ncn1CCc1cccc(F)c1`, 250 to 251 °C. Consider `COCCOc1ccc(/C=C/C2(O)CN3CCC2CC3)cc1` (centres undefined), for which the melting point fell in the range of 164 to 166 °C. In turn, `O=c1[nH]c(=O)c2ccccc2o1` came in with a melting point of 132 to 133 °C. On to `COC(=O)C1CN1C(c1ccccc1)(c1ccccc1)c1ccccc1` (centres undefined), for which the melting point is 127 to 128 °C.

In turn, `CC(=O)Nc1nc(CCc2ccc(CN3CCNCC3)cc2)cs1` came in with a melting point of 164 to 166 °C. `CCOC(=O)c1cnc2c3cc(NC(=O)CC(C)(C)C)ccc3ncn2c1=O` displayed a melting point of 253 to 254 °C. Regarding `CC#CC1(C2CC2)OC(=O)Nc2ccc(-c3cccc(Cl)c3)cc21` (centres undefined), the melting point lay within 178 to 179 °C. Regarding `C[C@@H]1CCN(C(=O)C(C)(C)C)[C@@H](C(=O)O)C1`, the melting point lay within 87 to 90 °C. In turn, `CN(N(C)S(C)(=O)=O)S(C)(=O)=O` showed a melting point of 168 to 169 °C. Take `NC(=O)[C@H](CO)NC(=O)c1cccc(NS(=O)(=O)CC2CN(C(c3ccc(Cl)cc3)c3ccc(Cl)cc3)C2)c1`: the melting point was in the range of 245 to 247 °C. The compound `O=C(C1CC1)N1CCCc2oc(-c3ccccc3)cc2C1` showed a melting point of 108 to 110 °C. As to `CC(C)OC(=O)c1ncn2c1CN(C)C(=O)c1cc(F)ccc1-2`, the melting point is 243 to 244 °C. Consider `CCCCc1nc2ccc(N(C)C(=O)NC)cc2n1Cc1ccc(-c2ccccc2C(=O)O)cc1`, for which the melting point was 163 to 165 °C. In turn, `CC(C)CC1=CC(c2ccccc2)C2=C(CCCC2=O)N1` (centres undefined) gave a melting point of 182 to 184 °C. In the case of `CN1CCN(c2cc(-c3cnc4c(c3)N(C(=O)Cc3cc(F)ccc3F)CCN4)ccn2)CC1`, the melting point is > 300 °C. The compound `CC(C)(C)OC(=O)N[C@@H]1CCC[C@@H]1O` (relative stereo) registered a melting point of 64 to 65 °C. For the compound `COC(CCOc1cc(C)ccc1C)C(C)(C)C(=O)O` (centres undefined), the melting point lay within 76 to 77 °C. In the case of `O=C(O)c1cc(-c2ccc(C(F)(F)F)cc2)nc(-c2ccc(C(F)(F)F)cc2)c1` it was 289 to 290 °C.

On to `O=C(CC1CC2CCC1C2)NCC1CCN(c2ncccn2)CC1` (centres undefined), for which the melting point was in the range of 121 to 126 °C. `O=C(O)COCCOc1c(-c2cccc(C(F)(F)F)c2)cc(C(=O)NCCCCCCc2ccccc2)cc1-c1cccc(C(F)(F)F)c1` came in with a melting point of 74.7 to 75.9 °C. On to `COC(=O)c1ccc(CN2CCN(S(=O)(=O)c3ccccc3)CC2)cc1`, for which the melting point is 145 to 146 °C.

On to `O=C(O)c1ccc(-c2nc(-c3cccc(C(F)(F)F)c3)co2)cc1`, for which the melting point lay within 253 to 254 °C.

Turning to `CC(C)c1ccc2c(c1)C(=O)N(C)C(c1ccc(C(C)(C)C)cc1)C2C(=O)O` (centres undefined), the melting point was 204 to 207 °C. For `CN1CCN(C2=Nc3cc(Br)ccc3N3CCc4cc(Br)cc2c43)CC1`, the melting point fell in the range of 215 to 216 °C. Consider `CC(=O)n1ccn(C(C)=O)c1=O`, for which the melting point is 106 °C. For `O=C(Nc1ccc(F)cc1)C1=C(C(=O)Nc2cc(OC3CCCC3)c(Cl)cc2F)CCCC1`, the melting point is 209 to 210 °C. The result for `O=C([C@H](Cc1ccccc1)NC1CCCCC1)N1CCN(C(c2ccc(F)cc2)c2ccc(F)cc2)CC1` reads 60 to 64 °C; that for `COc1cc(S(C)=O)ccc1-c1nc2ccc(C(C)(C)CNS(C)(=O)=O)cc2[nH]1` (centres undefined), 126 to 128 °C. Consider `CCC(=O)NCc1nc(-c2cc(C(C)(C)C)c(O)c(C(C)(C)C)c2)cs1`, for which the melting point fell in the range of 82 to 83.5 °C. In the case of `N#CC(N)=C(N)Sc1ccc(Cl)cc1` it was 107 to 108 °C; in that of `C=CC(=O)N1CC[C@H]2[C@H]1[C@@H](CCC)C(=O)N2S(C)(=O)=O` (relative stereo), 177 to 181 °C; in that of `CCCCCCCCCCCCCCCCCCOCCC(=O)COCc1ccccc1`, 33 to 34 °C.

Regarding `O=c1[nH]c2c([nH]c1=O)C(O)c1ccccc1-2` (centres undefined), the melting point was > 300 °C. In the case of `COc1ccc2c(c1)CCC1C2CCC2(C)C(=O)CC(C)C12` (centres undefined) it was 127 to 129 °C. For the compound `COc1cc2ncnc(N3CCC(CN4CCCN(C(C)C)S4(=O)=O)CC3)c2cc1OC`, the melting point was 158 to 161 °C. On to `C[C@H](NC(=O)C(CSC(=O)c1ccccc1)SC(=O)c1ccccc1)C(=O)N1CCC[C@H]1C(=O)O` (some centres undefined), for which the melting point lay within 185 to 186 °C. The compound `CCC(=O)NCCC1CNc2ccc3c(c21)CCO3` (centres undefined) registered a melting point of 96 to 98 °C. The result for `O=c1c2ccccc2c(Cc2ccc(F)cc2)nn1N1CCNCC1` reads 157 to 159 °C. For `CCCCCCCCCCCCCCCCCCNC(=O)OCC(CNS(=O)(=O)CCCCl)n1nnnc1C` (centres undefined), the melting point lay in the range of 74 to 77 °C.

Compound `COC1COc2cc(NS(C)(=O)=O)c(Oc3ccccc3)cc2C1=O` (centres undefined) had a melting point of 139 to 141 °C. As to `CC(C)(C)c1ccc(S(=O)(=O)N2c3ccc(F)cc3CC2C(=O)NCCc2ccccc2)cc1` (centres undefined), the melting point lay within 168 to 172 °C. `CCCCCCCCCCCCCCCCC#CCBr` registered a melting point of 34 to 35 °C. The compound `CSC1NC(=O)N(c2ccc(C)cc2)C(=O)N1N=C(C)C` (centres undefined) came in with a melting point of 170 to 173 °C.

`Cc1cc(C)c(C(CO)c2ccccc2)c(O)c1C` (centres undefined): the melting point was in the range of 103 to 104 °C.

For `CCS(=O)CC(=O)c1ccc(-c2ccccc2F)cc1` (centres undefined), the melting point was in the range of 91 to 93 °C. `C#CCOC(=O)Oc1ccc(Cc2ccc(OC(=O)OCC#C)cc2)cc1` gave a melting point of 60 °C.

In the case of `CNc1nc(-c2ccccc2)c(-c2nc3ccccc3c(=O)n2-c2ccc(OC)cc2)s1`, the melting point was in the range of 235 to 236 °C.

`Cc1oc(=O)oc1CS[C@H](C)[C@](O)(Cn1cncn1)c1ccc(F)cc1F` (racemic) had a melting point of 173 to 174 °C. For the compound `Cc1cc(C(=O)C2CCc3nc[nH]c3C2)c2ccccn12` (centres undefined), the melting point was in the range of 219 to 221 °C. On to `CNc1ccc2ccccc2c1-c1c(P(c2ccccc2)c2ccccc2)ccc2ccccc12`, for which the melting point stood at 100 °C. Compound `COc1ccc(C(=O)C=Cc2cccnc2)cc1` came in with a melting point of 113 to 114 °C. Regarding `O=C(O)/C=C/c1ccc(C(=C2CCCCCC2)c2ccc(O)c(Cl)c2)cc1`, the melting point was in the range of 155 to 156 °C. For the compound `COc1ccc(NC(=O)c2ccc(OC)c(NC(=S)Nc3cc(Cl)cc(Cl)c3)c2)cc1`, the melting point lay within 175 to 182 °C. The result for `CC(C)(C)CCNc1cccc(-c2ccnc3c(C(=O)c4cccs4)cnn23)c1` reads 156 to 158 °C; that for `C#CCOc1nc(-n2ncc(C(=O)OCC)c2N)c(C(F)(F)F)cc1Cl`, 118 to 119 °C. Turning to `CC(=O)Nc1nc2ccc(Cl)nc2c(=O)[nH]1`, the melting point fell in the range of 317 to 319 °C. Take `COc1cc(OC)c(CSC(C)(C)CC(=O)O)c(OC)c1`: the melting point is 103 to 105 °C.

For `COCOc1ccc(CCCOc2c(CC(=O)O)cccc2OC)c(Oc2ccc(C(F)(F)F)cn2)c1`, the melting point fell in the range of 70 to 72 °C.

With `Cc1coc(NC(=O)CCCCl)n1`, the melting point amounted to 98 °C.

`CCOC(=O)C(CCC#N)(C(=O)OCC)c1ncc(Br)cc1[N+](=O)[O-]` showed a melting point of 58 to 62 °C. For `CC12CCC3c4ccc(O)cc4CCC3C1CC(O)C2=C(F)F` (centres undefined), the melting point was in the range of 225 to 227 °C.
